Measured values reported in PMC12022901 (Frontiers in Pharmacology, 2025).

Experiments:
[1] = clinical; details: for Vd/F: Vz/F; for half-life: t1/2, oral microdose cocktail; for exposure (AUC) during carbamazepine relative to baseline: microdosed FXaI
[2] = Pharmacokinetics of factor Xa inhibitors at baseline and at pregabalin steady-state (open-label fixed-sequence DDI trial); details: human, in vivo, po, oral microdose cocktail, GM
From the text: (§1) A p-value < 0.05 was considered significant.

[3] = cited from earlier work
[4] = Pharmacokinetics of factor Xa inhibitors at baseline and at gabapentin steady-state (open-label fixed-sequence DDI trial); details: human, in vivo, po, oral microdose cocktail, GM
From the text: as §1

[5] = system: Coagulation markers (activated partial thromboplastin time and international normalized ratio); assay: Coagulation markers measured 3 h post dose; type: in vivo, human (healthy volunteers)
[6] = Safety: adverse events in the trial cohorts; details: cohort of the named antiepileptic drug
[7] = parameters: method as in Brown, 2014; details: ref Brown, 2014; cited from earlier work
[8] = system: CYP3A; assay: CYP3A activity assessed by pharmacokinetics of microdosed midazolam (limited sampling, AUC2-4, eCLmet)
Method: We simultaneously quantified the effect on CYP3A activity with an oral midazolam microdose (30 µg) (Figure 1).
Carbamazepine, gabapentin, and pregabalin were dosed to steady-state during a treatment period of 21 d for carbamazepine, 13 d for gabapentin, and 21 d for pregabalin, followed by the evaluation of their perpetrator effects. Steady-state was ensured until the last blood sample was drawn. Carbamazepine was titrated to a maximum dose of 200 mg twice a day, if possible. If this dose could not be reached due to adverse events, carbamazepine was titrated to therapeutic plasma concentrations (5–10 μg/mL), with the lower range chosen to ensure the safety of the participants. Gabapentin was administered at a dose of 400 mg three times a day and pregabalin at a dose of 300 mg twice a day. Single-dose pharmacokinetics of the microdosed FXaI were assessed at baseline and at the end of the above mentioned treatment period, at steady-state of the perpetrator.
All collected samples were processed within 20 min and plasma was stored at ≤ −20°C until analysis.
Non-compartmental analyses were conducted to assess the pharmacokinetics of the FXaI and midazolam utilizing Phoenix WinNonlin 8.3 (Certara, Inc., Princeton, NJ, United States). Cmax and the time to reach Cmax (tmax) were directly obtained from the concentration data. The area under the concentration-time curve from 0 to infinity ( AUC∞ ) was determined using the log-linear trapezoidal rule with extrapolation to infinity. The half-life (t1/2) was calculated as ln2/λz , with the elimination rate constant λz being estimated utilizing log-linear regression of the elimination phase. Apparent oral CL (CL/F) and volume of distribution (Vz/F) were calculated using standard equations for non-compartmental analysis.

[9] = human, in vivo, po, oral microdose cocktail (25 µg apixaban, 50 µg edoxaban, 25 µg rivaroxaban), baseline, GM
[10] = human, in vivo, po, oral microdose cocktail, during carbamazepine steady-state, GM
[11] = human, in vivo, po, oral microdose cocktail, baseline, GM
[12] = human, in vivo, po, oral microdose cocktail, at carbamazepine steady-state, GM
[13] = human, in vivo, po, at carbamazepine steady-state, GM
[14] = human, in vivo, po, baseline, GM
[15] = oral microdose cocktail, at carbamazepine steady-state, GM
[16] = oral microdose cocktail, baseline, GM
[17] = 180 min after edoxaban 60 mg alone
[18] = 180 min after edoxaban 60 mg with carbamazepine
[19] = healthy volunteers, 7-d rifampin treatment, ref Mendell et al., 2015
[20] = carbamazepine cohort, at carbamazepine steady-state, with edoxaban 60 mg
[21] = carbamazepine cohort, at carbamazepine steady-state, with microdosed FXaI
[22] = carbamazepine cohort, baseline, with edoxaban 60 mg
[23] = gabapentin cohort, at gabapentin steady-state, with edoxaban 60 mg
[24] = gabapentin cohort, at gabapentin steady-state, with microdosed FXaI
[25] = gabapentin cohort, baseline, with edoxaban 60 mg
[26] = pregabalin cohort, at pregabalin steady-state, with edoxaban 60 mg
[27] = pregabalin cohort, at pregabalin steady-state, with microdosed FXaI
[28] = pregabalin cohort, baseline, with edoxaban 60 mg

COc1ccc(-n2nc(C(N)=O)c3c2C(=O)N(c2ccc(N4CCCCC4=O)cc2)CC3)cc1 [µ-apixaban, apixaban]
AUC(0-inf) [1, 9]: 5.9 ng·h/mL | AUC(0-inf) [1, 10]: 3.92 ng·h/mL | Cmax [1, 11]: 0.719 ng/mL | Cmax [1, 10]: 0.634 ng/mL | Vd/F [1, 12]: 36 L | Vd/F [1, 11]: 36 L | half-life [1, 13]: 3.95 h | half-life [1, 14]: 5.97 h | exposure (AUC) during carbamazepine relative to baseline [1]: 66% | tmax ([1]; oral microdose cocktail (solution), baseline, GM): 1.6 h | CL/F [1, 15]: 6.4 L/h | tmax [1, 15]: 1.72 h | CL/F [1, 16]: 4.2 L/h | AUC(0-inf) ([2]; before pregabalin): 6.2 ng·h/mL | AUC(0-inf) ([2]; during pregabalin steady-state): 6.07 ng·h/mL | Cmax ([2]; before pregabalin): 0.782 ng/mL | Cmax ([2]; during pregabalin steady-state): 0.775 ng/mL | reduction in exposure ([3]; combined use with inducers of both CYP3A4 and P-gp such as carbamazepine, ref Eliquis, 2024): ~50% | AUC(0-inf) ([4]; baseline): 6.95 ng·h/mL | AUC(0-inf) ([4]; during gabapentin steady-state): 6.48 ng·h/mL | Cmax ([4]; baseline): 0.822 ng/mL | Cmax ([4]; during gabapentin steady-state): 0.775 ng/mL

O=C(NC[C@H]1CN(c2ccc(N3CCOCC3=O)cc2)C(=O)O1)c1ccc(Cl)s1 [µ-rivaroxaban, rivaroxaban]
tmax ([1]; human, in vivo, po): 0.817 h | AUC(0-inf) [1, 9]: 3.1 ng·h/mL | AUC(0-inf) [1, 10]: 1.73 ng·h/mL | Cmax [1, 11]: 0.695 ng/mL | Cmax [1, 10]: 0.524 ng/mL | Vd/F [1, 12]: 63 L | Vd/F [1, 11]: 61 L | half-life [1, 13]: 3.02 h | half-life [1, 14]: 5.23 h | exposure (AUC) during carbamazepine relative to baseline [1]: 56% | CL/F [1, 15]: 14 L/h | tmax [1, 15]: 0.817 h | CL/F [1, 16]: 8.0 L/h | AUC(0-inf) ([2]; before pregabalin): 3.08 ng·h/mL | AUC(0-inf) ([2]; during pregabalin steady-state): 3.03 ng·h/mL | Cmax ([2]; before pregabalin): 0.783 ng/mL | Cmax ([2]; during pregabalin steady-state): 0.744 ng/mL | AUC(0-inf) ([4]; baseline): 3.23 ng·h/mL | AUC(0-inf) ([4]; during gabapentin steady-state): 2.98 ng·h/mL | Cmax ([4]; baseline): 0.718 ng/mL | Cmax ([4]; during gabapentin steady-state): 0.688 ng/mL

CN1CCc2nc(C(=O)N[C@@H]3C[C@@H](C(=O)N(C)C)CC[C@@H]3NC(=O)C(=O)Nc3ccc(Cl)cn3)sc2C1 [Edoxaban, edoxaban]
INR, mean [5, 17]: 1.23 | aPTT, mean [5, 17]: 33.63 | INR, mean [5, 18]: 1.14 | aPTT, mean [5, 18]: 29.56 | coagulation changes induced by edoxaban ([5]; therapeutic dose or microdose, with gabapentin or pregabalin (data not shown)): not influenced | AUC reduction ([3]; co-administration with rifampin, ref Lixiana, 2017): up to 35%

CC(C)C[C@H](CN)CC(=O)O [pregabalin]
adverse events deemed possibly related to the trial medication [6]: 25 | adverse events overall [6]: 37 | participants with adverse events [6]: 11 of 12 | severe or serious adverse events [6]: none was severe or serious

CN1CCc2nc(C(=O)N[C@@H]3C[C@@H](C(=O)O)CC[C@@H]3NC(=O)C(=O)Nc3ccc(Cl)cn3)sc2C1 [Edoxaban M-4]
AUC increase [3, 19]: 2.86 fold | Cmax increase [3, 19]: 5.06 fold | anticoagulant effects of M-4 and edoxaban [7]: comparable anticoagulant effects

NC(=O)N1c2ccccc2C=Cc2ccccc21 [carbamazepine]
adverse events deemed possibly related to the trial medication [6]: 19 | adverse events overall [6]: 29 | participants with adverse events [6]: 12 of 13 | severe or serious adverse events [6]: none was serious, one was severe

Cc1ncc2n1-c1ccc(Cl)cc1C(c1ccccc1F)=NC2 [Midazolam, midazolam]
eCLmet [8, 20]: 5654 mL/h | eCLmet GMR to baseline [8, 20]: 5.54 | eCLmet [8, 21]: 5636 mL/h | eCLmet GMR to baseline [8, 21]: 5.52 | eCLmet [8, 22]: 997 mL/h | eCLmet GMR to baseline [8, 22]: 0.98 | eCLmet ([8]; carbamazepine cohort, baseline, with microdosed FXaI): 1021 mL/h | decrease of midazolam AUC2-4 ([8]; co-administration of carbamazepine): 82% | eCLmet [8, 23]: 923 mL/h | eCLmet GMR to baseline [8, 23]: 0.99 | eCLmet [8, 24]: 957 mL/h | eCLmet GMR to baseline [8, 24]: 1.02 | eCLmet [8, 25]: 931 mL/h | eCLmet GMR to baseline [8, 25]: 1.0 | eCLmet ([8]; gabapentin cohort, baseline, with microdosed FXaI): 936 mL/h | effect on midazolam pharmacokinetics ([8]; gabapentin steady-state): did not alter | eCLmet [8, 26]: 1306 mL/h | eCLmet ratio to baseline [8, 26]: 1.23 | eCLmet [8, 27]: 1198 mL/h | eCLmet ratio to baseline [8, 27]: 1.13 | eCLmet [8, 28]: 1201 mL/h | eCLmet ratio to baseline [8, 28]: 1.13 | eCLmet ([8]; pregabalin cohort, baseline, with microdosed FXaI): 1061 mL/h | effect on midazolam pharmacokinetics ([8]; pregabalin steady-state): did not alter

NCC1(CC(=O)O)CCCCC1 [gabapentin]
adverse events deemed possibly related to the trial medication [6]: 21 | adverse events overall [6]: 39 | participants with adverse events [6]: 11 of 11 | severe or serious adverse events [6]: none was severe or serious
